Measured values published in patent publication US8187822B2, “Methods to identify modulators” (Givaudan S.A., priority 2007, dated 2012).

What was measured:
[1] = target: T1, TAS2R10 (Homo sapiens, UniProt Q9NYW0); assay: Fluo-4 calcium assay, HEK293T cells stably expressing Gα16-gustducin44 and TAS2R10; format: cell-based
T1 construct: The full length gene of human TAS2R44 was amplified by polymerase chain reaction (PCR) using gene-specific primers that span the entire coding region; RSS tag (first 45 amino acids of rat somatostatin receptor subtype 3) (N); expressed in transfected cells
T1 sequence (Q9NYW0 1-307): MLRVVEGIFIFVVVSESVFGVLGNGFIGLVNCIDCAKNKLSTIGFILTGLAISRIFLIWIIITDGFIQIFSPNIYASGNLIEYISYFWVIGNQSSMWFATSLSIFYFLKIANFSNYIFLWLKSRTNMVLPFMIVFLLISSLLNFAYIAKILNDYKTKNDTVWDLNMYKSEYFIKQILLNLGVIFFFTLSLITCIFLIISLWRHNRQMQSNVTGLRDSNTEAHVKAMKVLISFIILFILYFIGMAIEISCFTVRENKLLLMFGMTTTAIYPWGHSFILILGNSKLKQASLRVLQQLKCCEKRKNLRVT

[2] = system: bitter-sensitive panelists; assay: Sensory evaluation of bitter blocking in sucralose solution (forced choice); format: in vivo, human; conditions: for perceived bitterness of sucralose, in words: 13 ppm in 3 mM sucralose solution
Method: The bitter blocking capability of test cpd A (13 ppm) in sucralose (3 mM) solution was evaluated. Twenty ml of each solution (sucralose or sucralose with test cpd A) was presented in random order to 15 bitter-sensitive panelists. In two replications, panelists were asked to select the solution they perceived as more bitter. A beta-binomial analysis was calculated from the forced-choice data to correct for overdispersion. Because panelists evaluated bitterness over 2 replications, the data was subjected to a beta-binomial d′ analysis to determine whether over-dispersion occurred. Not accounting for over-dispersion has the potential to underestimate the significance level at which a test is conducted and therefore lead to false-positive results. The analysis refuted overdispersion (gamma=0.00; p=0.109) and no adjustments were necessary.

Row | Structure (SMILES) | calcium signaling in TAS2R10 cells, in words [1] | TAS2R10 ΔF/F0 ([1]; sucralose 0.3906 mM) | TAS2R10 ΔF/F0 ([1]; sucralose 0.7813 mM) | TAS2R10 ΔF/F0 ([1]; sucralose 1.5625 mM) | TAS2R10 ΔF/F0 ([1]; sucralose 3.1250 mM) | TAS2R10 ΔF/F0 ([1]; sucralose 6.2500 mM) | TAS2R10 ΔF/F0 ([1]; sucralose 12.5000 mM) | TAS2R10 ΔF/F0 ([1]; sucralose 25.0000 mM) | TAS2R10 ΔF/F0 ([1]; sucralose 50.0000 mM) | TAS2R10 ΔF/F0 ([1]; sucralose 100.0000 mM) | perceived bitterness of sucralose, in words [2] | perceived bitterness of sucralose, in words ([2]; listed as (E)-4-(2,2,3-trimethylcyclopent-3-enyl)but-2-enoic acid) | evaluations selecting the solution with test compound as less bitter than 3 mM sucralose solution ([2]; 13 ppm in 3 mM sucralose, 15 panelists, 2 replications, p<0.05) | d′ ([2]; 13 ppm in 3 mM sucralose, forced choice)
1 | OC[C@H]1O[C@H](O[C@]2(CCl)O[C@H](CCl)[C@@H](O)[C@@H]2O)[C@H](O)[C@@H](O)[C@H]1Cl [Sucralose, sucralose] | significant concentration-dependent increase in calcium signaling | 0.050 | 0.050 | 0.047 | 0.053 | 0.053 | 0.059 | 0.087 | 0.212 | 0.437 | – | – | – | –
2 | CC1=CCC(C/C=C/C(=O)O)C1(C)C (centres unmarked) [test cpd A, (E)-4-(2,2,3-trimethylcyclopent-3-enyl)but-2-enoic acid] | – | – | – | – | – | – | – | – | – | – | reduced the perceived bitterness | significantly reduce the bitter aftertaste of sucralose | 22 of 30 | 0.88±0.12
